Data: patent publication US20110189204A1, “Treatment of Disease with Proteasone Inhibitors” (priority 2009, published 2011)

How the values were obtained:
[1] = Toxicological screening, bi-weekly/weekly subcutaneous dosing (TOX7345)
Experimental: (§1) For each study group, the following toxicological screening was performed: mortality, body weight, food consumption, clinical observations, ophthalmology, electrocardiography, hematology, serum biochemistry, urinalysis, injection site evaluations (erythema and edema), neurological examinations, histology, and peripheral neuropathy.

[2] = in vivo
Experimental: as §1

[3] = tested on: 20S proteasome (chymotryptic activity) in whole blood; assay: 20S proteasome inhibition in whole blood, bi-weekly/weekly dosing (TOX7345); type: in vivo, Cynomolgus monkeys
Experimental: (§2) For each study, the 20S proteasome activity in whole blood was determined, as described in Lightcap, Clin. Chem., 46:673 (2000). The chymotryptic activity was assayed by measuring the rate at which the proteasome hydrolyzed an amide bond in a small fluorescence tagged polypeptide substrate. The specific activity (Spa) was normalized to the amount of protein present in the lysate.

[4] = tested on: 20S proteasome (chymotryptic activity) in whole blood; assay: 20S proteasome inhibition in whole blood, daily (5/7 days) dosing (TOX8394); type: in vivo, Cynomolgus monkeys
Experimental: as §2

[5] = in vivo; conditions: both, cynomolgus monkey, plasma
Experimental: (§3) For bi-weekly dosing treatment (TOX 7345), a group of 3 male and 3 female Cynomolgus monkeys were dosed for 4 cycles.
(§4) The test substance and vehicle were freshly prepared on the day of use.
(§5) For each study, the values of the time to maximum plasma concentration (Tmax), the maximum plasma concentration (Cmax) were determined by visual inspection of the data. The area-under-the plasma-concentration-time curve (AUC) was estimated by the linear trapezoidal rule. Plasma samples were analyzed using a validated LC/MS/MS method with a lower quantification limit of about 0.5 ng/ml.

[6] = in vivo; conditions: both, cynomolgus monkey, plasma; remark: listed apart in the source
[7] = Plasma pharmacokinetics, bi-weekly/weekly subcutaneous dosing (TOX7345)
Experimental: as §3, §4, §5

[8] = Plasma pharmacokinetics, daily (5/7 days) subcutaneous dosing (TOX8394)
[9] = both, cynomolgus monkey, in vivo
[10] = cynomolgus monkey, in vivo, 0.1 mg/kg
[11] = day 1, 0.075 mg/kg sc bi-weekly
[12] = day 32, 0.075 mg/kg sc bi-weekly
[13] = day 74, 0.075 mg/kg sc bi-weekly
[14] = day 3, 0.0166 mg/kg sc daily (5/7 days)
[15] = day 3, 0.0333 mg/kg sc daily (5/7 days)
[16] = day 3, 0.05 mg/kg sc daily (5/7 days)
[17] = day 54, 0.0166 mg/kg sc daily (5/7 days)
[18] = day 54, 0.0333 mg/kg sc daily (5/7 days)
[19] = day 54, 0.05 mg/kg sc daily (5/7 days)

For `CC(C)C[C@H](NC(=O)[C@H](Cc1ccccc1)NC(=O)c1cnccn1)B(O)O` [bortezomib], the Mortality ([1]; 0.166 mg/kg weekly, considered treatment related) was 1 F (day 72), 1 M (day 79), at, the MTD at 4 cycles [1, 9] was ~0.1 mg/kg and the “Peripheral neuropathy: focal axonal neurofiber degeneration, spinal cord (dorsal root ganglia)” value [1, 9] was 0.1/0.166 (weekly) mg/kg minimal. The Body weight ([1]; cynomolgus monkey, in vivo) was “No body weight loss at other dose”, the Electrocardiography ([1]; cynomolgus monkey, in vivo) was “No abnormalities found at any” and the Haemathology ([1]; cynomolgus monkey, in vivo) was “No hematological changes related”. The “Histology: PANCREAS” value ([1]; cynomolgus monkey, in vivo) was “PANCREAS: no findings”, the “Histology: PROSTATE” value ([1]; cynomolgus monkey, in vivo) was “PROSTATE: no findings” and the Ophthalmology ([1]; cynomolgus monkey, in vivo) was “No treatment related changes”. For the same compound, the Urinalysis ([1]; cynomolgus monkey, in vivo) was “No treatment related findings”, the “Histology: LYMPH NODES” value [1, 10] was “LYMPH NODES: lymphoid atrophy” and the “Histology: SPLEEN” value [1, 10] was “SPLEEN: pulp, lymphoid atrophy”. The Mortality ([1]; other dose levels (0.075, 0.1 mg/kg bi-weekly)) was “No mortality at other dose levels”, the Kidney weights ([2]; 0.05 mg/kg/dose, all monkeys) was “greater than kidney weights of control monkeys” and the “Injection site histopathological finding” value ([2]; 0.05 mg/kg/dose, male and female) was “fibroplasia”. The “Peripheral neuropathy: peripheral (sciatic, tibial and peroneal nerves) degeneration” value ([2]; 0.0333-0.05 mg/kg) was “peroneal nerves): minimal”, the “Peripheral neuropathy: spinal cord dorsal funiculi (cervical & lumbar)” value ([2]; 0.0333-0.05 mg/kg) was “& lumbar) minimal degeneration” and the “Clinical observations: faeces” value ([2]; 0.0333 or 0.05 mg/kg) was “Abnormal faeces (soft, liquid, 0.0333”. The MTD at 8 weeks [2, 9] was ~0.05 mg/kg, the Body weight ([2]; cynomolgus monkey, in vivo) was “No body weight loss at any other” and the “ECG, ophthalmology, rectal temperature or blood pressure” value ([2]; cynomolgus monkey, in vivo) was “No bortezomib-related changes”. For the same compound, the Electrocardiography ([2]; cynomolgus monkey, in vivo) was “No abnormalities found at any dose”, the Fibrinogen concentrations ([2]; cynomolgus monkey, in vivo) was “fibrinogen concentrations increased” and the “Gross abnormalities at necropsy” value ([2]; cynomolgus monkey, in vivo) was “no gross abnormalities”. The “Haemathology: mean platelet volume” value ([2]; cynomolgus monkey, in vivo) was “mean platelet volume increased”, the “Haemathology: platelet numbers” value ([2]; cynomolgus monkey, in vivo) was “Platelet numbers decreased” and the “Histology: BONE MARROW” value ([2]; cynomolgus monkey, in vivo) was “BONE MARROW: no findings”. For the same compound, the “Histology: LYMPH NODES” value ([2]; cynomolgus monkey, in vivo) was “LYMPH NODES: no findings”, the “Histology: SPLEEN” value ([2]; cynomolgus monkey, in vivo) was “SPLEEN: no findings” and the Ophthalmology ([2]; cynomolgus monkey, in vivo) was “No treatment related changes”. For the same compound, the Urinalysis ([2]; cynomolgus monkey, in vivo) was “No treatment related findings”, the “Urinalysis parameters creatinine, inorganic phosphorus, ketones, protein and sodium” value ([2]; cynomolgus monkey, in vivo) was “Increases” and the Tolerability ([2]; cynomolgus monkey, in vivo, sc) was “well tolerated”. The Stool ([2]; multiple days, one male each at 0.0166 and 0.0333, one female at 0.05 mg/kg/dose) was “Soft stool”, the Body weight lost ([2]; nine male and female monkeys in the 0.0333 and 0.05 mg/kg/dose groups) was 3-12% and the “No Observed Adverse Effect Level (NOAEL)” value ([2]; repeated five times weekly sc administration for 8 weeks) was “cannot be identified”. The AUE0-72h ([3]; about 1.2 mg/m^2 bi-weekly) was 1500 %. h, the “strongest inhibition (Emax)” value ([3]; bi-weekly regimen, 0.1 mg/kg) was 74% and the “cumulative weekly AUE” value ([3]; bi-weekly schedule, about 1.2 mg/m^2) was 3000 %. h. For the same compound, the AUE0-24 h [3, 11] was 585 (87) % Inhibition · time, the “Emax (% proteasome inhibition)” value [3, 11] was 63% and the “Tmax (time of occurrence of Emax)” value [3, 11] was 30 min. The AUE0-24 h ([3]; day 1, 0.1 mg/kg sc bi-weekly) was 926 (99) % Inhibition · time, the “Emax (% proteasome inhibition)” value ([3]; day 1, 0.1 mg/kg sc bi-weekly) was 74% and the “Tmax (time of occurrence of Emax)” value ([3]; day 1, 0.1 mg/kg sc bi-weekly) was 30 min. The AUE0-24 h ([3]; day 1, 0.166 mg/kg sc weekly) was 931 (124) % Inhibition · time, the “Emax (% proteasome inhibition)” value ([3]; day 1, 0.166 mg/kg sc weekly) was 78% and the “Tmax (time of occurrence of Emax)” value ([3]; day 1, 0.166 mg/kg sc weekly) was 60 min. The AUE0-24 h [3, 12] was 1086 (158) % Inhibition · time, the “Emax (% proteasome inhibition)” value [3, 12] was 68% and the “Tmax (time of occurrence of Emax)” value [3, 12] was 30 min. The AUE0-24 h ([3]; day 32, 0.1 mg/kg sc bi-weekly) was 1454 (201) % Inhibition · time, the “Emax (% proteasome inhibition)” value ([3]; day 32, 0.1 mg/kg sc bi-weekly) was 71% and the “Tmax (time of occurrence of Emax)” value ([3]; day 32, 0.1 mg/kg sc bi-weekly) was 30 min. The AUE0-24 h ([3]; day 50, 0.166 mg/kg sc weekly) was 2152 (222) % Inhibition · time, the “Emax (% proteasome inhibition)” value ([3]; day 50, 0.166 mg/kg sc weekly) was 78% and the “Tmax (time of occurrence of Emax)” value ([3]; day 50, 0.166 mg/kg sc weekly) was 30 min. For the same compound, the AUE0-24 h [3, 13] was 1111 (116) % Inhibition · time, the “Emax (% proteasome inhibition)” value [3, 13] was 67% and the “Tmax (time of occurrence of Emax)” value [3, 13] was 30 min. The AUE0-24 h ([3]; day 74, 0.1 mg/kg sc bi-weekly) was 1584 (210) % Inhibition · time, the “Emax (% proteasome inhibition)” value ([3]; day 74, 0.1 mg/kg sc bi-weekly) was 72% and the “Tmax (time of occurrence of Emax)” value ([3]; day 74, 0.1 mg/kg sc bi-weekly) was 30 min. The AUE0-24 h ([3]; day 78, 0.166 mg/kg sc weekly) was 1468 (219) % Inhibition · time, the “Emax (% proteasome inhibition)” value ([3]; day 78, 0.166 mg/kg sc weekly) was 77% and the “Tmax (time of occurrence of Emax)” value ([3]; day 78, 0.166 mg/kg sc weekly) was 60 min. For the same compound, the “time of maximal proteasome inhibition after dosing” value ([3]; on average, sc administration) was “about 0.5 h”, the maximal inhibition ([3]; weekly 0.166 mg/kg dose group) was 78% and the “cumulative AUE (over 1 week), daily schedule higher than bi-weekly” value ([4]; 0.05 mg/kg daily vs 0.1 mg/kg bi-weekly) was “about 50%”. The AUE0-24 h ([4]; about 0.6 mg/m^2 once daily) was 900 %. h, the “remaining 20S proteasome inhibition at the end of each 2-day drug-holiday” value ([4]; activity determined on various days before dosing) was “no indication for remaining 20S proteasome inhibition” and the “highest inhibition (Emax)” value ([4]; daily schedule, 0.05 mg/kg) was 73%. The “cumulative weekly AUE” value ([4]; daily schedule, about 0.6 mg/m^2) was 4500 %. h, the AUE0-24 h [4, 14] was 603 (77) % Inhibition · time and the “Emax (% proteasome inhibition)” value [4, 14] was 48%. The “Tmax (time of occurrence of Emax)” value [4, 14] was 30 min, the AUE0-24 h [4, 15] was 685 (32) % Inhibition · time and the “Emax (% proteasome inhibition)” value [4, 15] was 58%. For the same compound, the “Tmax (time of occurrence of Emax)” value [4, 15] was 30 min, the AUE0-24 h [4, 16] was 802 (67) % Inhibition · time and the “Emax (% proteasome inhibition)” value [4, 16] was 65%. For the same compound, the “Tmax (time of occurrence of Emax)” value [4, 16] was 30 min, the AUE0-24 h [4, 17] was 481 (103) % Inhibition · time and the “Emax (% proteasome inhibition)” value [4, 17] was 38%. For the same compound, the “Tmax (time of occurrence of Emax)” value [4, 17] was 30 min, the AUE0-24 h [4, 18] was 895 (125) % Inhibition · time and the “Emax (% proteasome inhibition)” value [4, 18] was 62%. The “Tmax (time of occurrence of Emax)” value [4, 18] was 30 min, the AUE0-24 h [4, 19] was 1039 (114) % Inhibition · time and the “Emax (% proteasome inhibition)” value [4, 19] was 73%. For the same compound, the “Tmax (time of occurrence of Emax)” value [4, 19] was 30 min, the “time of maximal proteasome inhibition after dosing” value ([4]; on average, sc administration) was “about 0.5 h” and the AUC(0-t) ([5]; Cynomolgus, sc, 0.166 mg/kg) was 229 ng·h/mL. The Cmax ([5]; Cynomolgus, sc, 0.166 mg/kg) was 158 ng/mL, the Tmax ([5]; Cynomolgus, sc, 0.166 mg/kg) was 13.8 min and the Tmax ([5]; Cynomolgus, subcutaneous) was ≤ 15 min. For the same compound, the Cmax ([5]; sc, 0.075 mg/kg) was 61.1 ng/mL, the Cmax ([5]; sc, 0.1 mg/kg) was 86.2 ng/mL and the Tmax ([5]; sc, 0.1 mg/kg) was 7.02 min. For the same compound, the AUC(0-t) ([5]; sc, 0.166 mg/kg) was 160 ng·h/mL, the Cmax ([5]; sc, 0.166 mg/kg) was 144 ng/mL and the Tmax ([5]; sc, 0.166 mg/kg) was 7.02 min. The Tmax ([6]; Cynomolgus, subcutaneous) was ≤ 15 min, the Cmax ([6]; sc, 0.0166 mg/kg) was 10.7 ng/mL and the Tmax ([6]; sc, 0.0166 mg/kg) was 8.88 min. The Cmax ([6]; sc, 0.0333 mg/kg) was 23.7 ng/mL, the Tmax ([6]; sc, 0.0333 mg/kg) was 6.96 min and the Cmax ([6]; sc, 0.05 mg/kg) was 34.2 ng/mL. The Tmax ([6]; sc, 0.05 mg/kg) was 12 min, the AUC0-72 h [7, 11] was 36.7 ng·h/mL and the AUC0-72 h ([7]; day 1, 0.1 mg/kg sc bi-weekly) was 77.5 ng·h/mL. For the same compound, the AUC0-72 h [7, 12] was 110 ng·h/mL, the Cmax [7, 12] was 58.8 ng/mL and the Tmax [7, 12] was 15 min. The AUC0-72 h ([7]; day 32, 0.1 mg/kg sc bi-weekly) was 227 ng·h/mL, the Tmax ([7]; day 32, 0.1 mg/kg sc bi-weekly) was 7.14 min and the AUC0-72 h ([7]; day 50, 0.166 mg/kg sc weekly) was 205 ng·h/mL. The Cmax ([7]; day 50, 0.166 mg/kg sc weekly) was 168 ng/mL, the AUC0-72 h [7, 13] was 122 ng·h/mL and the Cmax [7, 13] was 70.1 ng/mL. The Tmax [7, 13] was 8.34 min, the AUC0-72 h ([7]; day 74, 0.1 mg/kg sc bi-weekly) was 211 ng·h/mL and the Cmax ([7]; day 74, 0.1 mg/kg sc bi-weekly) was 113 ng/mL. The Tmax ([7]; day 74, 0.1 mg/kg sc bi-weekly) was 9.66 min, the Tmax [8, 14] was 0.138 (0.05) h and the Tmax [8, 15] was 0.165 (0.07) h. For the same compound, the Tmax [8, 16] was 0.203 (0.07) h, the Tmax [8, 17] was 0.161 (0.07) h and the Tmax [8, 18] was 0.184 (0.07) h. The Tmax [8, 19] was 0.185 (0.07) h.
